Molecules are shown by their SMILES.

Series [1] is described as follows: Systemic effect of intranasal mometasone furoate (HPLC metabolite profiling of plasma radioactivity, first-pass metabolism, cortisol secretion). It counts as in vivo. The note with it: administered intranasally.
Series [2] is described as follows: Phase-2 double-blind, randomized, placebo-controlled study in acute rhinosinusitis. It counts as in vivo, human. The following applies: Amoxicillin 500 mg three times a day. As for the experimental part:
A Phase-2, dose-ranging, double-blind, double-dummy, randomized, multi-center, multi-national study with 4 parallel groups was carried out. There were three treatment regimens: Mometasone Furoate Nasal Spray 200 μg was administered once a day; Mometasone Furoate Nasal Spray 200 μg also was administered twice a day; Amoxicillin 500 mg was administered three times a day. All three were administered against placebo. The regimens were administered to subjects 12 years of age or older with acute rhinosinusitis that was clinically diagnosed with symptoms present for 7 days or more and 28 days or less. Subjects with a major symptom score (sum of symptoms—facial pain, rhinorrhea, post nasal drip, sinus headache, nasal congestion—each scored 0—none-to 3—severe) greater than or equal to 5 and less than or equal to 12 at baseline with less than or equal to 3 symptoms scored severe were included. Subjects with a bacterial rhinosinusitis suspected on the presence of fever greater than or equal to 101° F./38.3° C., persistent severe unilateral facial pain/tooth pain, orbital or peri-orbital facial swelling, dental involvement; and/or worsening symptoms after initial improvement were excluded from the study. The primary efficacy variable of the study was the actual major symptom score (averaged daily for AM and PM assessments over 15 days of treatment). […]

For `C[C@@H]1C[C@H]2[C@@H]3CCC4=CC(=O)C=C[C@]4(C)[C@@]3(Cl)[C@@H](O)C[C@]2(C)[C@@]1(OC(=O)c1ccco1)C(=O)CCl` [mometasone furoate, Mometasone furoate], in series [1], the “first-pass metabolism in the liver” value is on record as greater than 98% and the “reduction in cortisol secretion levels” value is “minimal reduction”.
In the case of `CC1(C)S[C@@H]2[C@H](NC(=O)[C@H](N)c3ccc(O)cc3)C(=O)N2[C@H]1C(=O)O` [Amoxicillin], the “major symptom score, efficacy vs. placebo” value in series [2] (p=0.275) was “not different from placebo”. The recurrence rate in series [2] (follow-up phase (14 days), MFNS 200 μg twice a day) stood at 8%.

The values above are taken from US20050186144A1, “Treatment methods” (SCHERING CORPORATION, priority 2004, published 2005).
